Test results published in publication PMC3824154 (Angewandte Chemie (International ed. in English), 2013).

Molecular target: T1, MBP-RebF (Lentzea aerocolonigenes, UniProt Q8KI76)
T1 sequence (Q8KI76 1-170): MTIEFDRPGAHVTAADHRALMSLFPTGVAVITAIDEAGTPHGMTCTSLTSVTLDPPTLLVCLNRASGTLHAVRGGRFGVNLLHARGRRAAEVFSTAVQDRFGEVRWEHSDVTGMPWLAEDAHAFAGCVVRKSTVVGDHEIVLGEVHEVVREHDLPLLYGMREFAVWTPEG
Experiment: FAD reduction activity
Format: biochemical

With `NC(=O)C1=CN([C@@H]2O[C@H](COP(=O)(O)OP(=O)(O)OC[C@H]3O[C@@H](n4cnc5c(N)ncnc54)[C@H](O)[C@@H]3O)[C@@H](O)[C@H]2O)C=CC1` [NADH] the “FAD reduction activity (turnover)” value (FAD as electron acceptor) was “MBP-RebF, which uses NADH to reduce FAD to FADH2”.
For `Cc1cc2nc3c(=O)[nH]c(=O)nc-3n(C[C@H](O)[C@H](O)[C@H](O)COP(=O)(O)OP(=O)(O)OC[C@H]3O[C@@H](n4cnc5c(N)ncnc54)[C@H](O)[C@@H]3O)c2cc1C` [FAD], the “FAD reduction activity (turnover)” value (NADH as electron donor) was “retained high activity for the NAD-dependent reduction of FAD to FADH2”.
